We go through 20 compounds from ChEMBL document CHEMBL5356944, “Pharmacological overview of hederagenin and its derivatives” (RSC Med Chem, 2023).

One data set concerns Leishmania mexicana. Description: Antileishmanial activity against Leishmania mexicana amastigotes assessed as effective dose. Particulars: read-out: ED50 (the source's name).
Data set [1] can be described thus: Anticancer activity against human KBV cells assessed as cell survival rate in presence of paclitaxel.
Data set [2] is described as follows: Anticancer activity against human KBV cells xenografted in nude mouse assessed as reduction in tumor weight at 10 mg/kg relative to control. The class given is functional. The arrangement: scale not given: the % may be the effect or the level left.
The test system of data set [3] is RAW264.7. Kind of data set: Antiinflammatory activity in mouse RAW264.7 cells assessed as inhibition of LPS/IFNgamma-induced nitric oxide production. Format: functional.
A further data set has as its system T47D. Kind of data set: Cytotoxicity against human T47D cells assessed as reduction in cell viability measured after 72 hrs by MTT assay. Format: functional, cell-based.
The subject of data set [4] is A549. Description: Cytotoxicity against human A549 cells assessed as reduction in cell viability measured after 72 hrs by MTT assay. Format: functional, cell-based. The following applies: A549, 72 h.
For a further data set, the system named is MCF7. Kind of data set: Cytotoxicity against human MCF7 cells assessed as reduction in cell viability measured after 72 hrs by MTT assay. Format: functional, cell-based. The following applies: MCF7, 72 h.
The next data set concerns HT-1080. Description: Cytotoxicity against human HT-1080 cells assessed as reduction in cell viability measured after 72 hrs by MTT assay. The class given is functional, cell-based. Particulars: HT-1080, 72 h.
In a further data set the test system is A-431. Description: Cytotoxicity against human A-431 cells assessed as reduction in cell viability measured after 72 hrs by MTT assay. Format: functional, cell-based. Particulars: A-431, 72 h.
The next data set relates to HL-60. Description: Cytotoxicity against human HL-60 cells assessed as reduction in cell viability measured after 72 hrs by MTT assay. The class given is functional, cell-based. Particulars: HL-60, 72 h.
Data set [5] relates to A549. Description: Antitumor activity against human A549 cells assessed as cell growth inhibition.
Data set [6] has as its system A549. Kind of data set: Cytotoxicity against human A549 cells assessed as reduction in cell viability measured after 24 hrs by MTT assay. Format: functional, cell-based. Particulars: A549, 24 h.
Another data set relates to HepG2. Description: Antiproliferative activity against human HepG2 cells assessed as reduction in cell viability after 48 hrs by MTT assay. The class given is functional, cell-based. The following applies: HepG2, 48 h.
The nature of data set [7]: Cytotoxicity against mouse L929 cells assessed as reduction in cell viability. Format: toxicity, cell-based.
The next data set deals with BT-20. Kind of data set: Cytotoxicity against human BT-20 cells assessed as reduction in cell viability incubated for 48 hrs by Alamar blue assay. The class given is functional, cell-based. Particulars: BT-20, 48 h.
The next data set deals with HeLa. Kind of data set: Antiproliferative activity against human HeLa cells assessed as reduction in cell viability measured after 72 hrs by MTT assay. Format: functional, cell-based.
The next data set has as its system NCI-H1299. Description: Inhibition of colony formation in human NCI-H1299 cells assessed as reduction in number of colonies measured after 24 to 48 hrs by crystal violet staining based assay. Format: functional. The following applies: time 24-48 hrs.
A further data set concerns Toxoplasma gondii. Kind of data set: Antiparasitic activity against Toxoplasma gondii infected in human HeLa cells assessed as inhibition of cell growth relative to control. The class given is functional.
A short description of data set [8]: Half life in rat plasma. The class given is ADME, cell-free.
Data set [9] in a line: Tmax in rat plasma. Format: ADME, cell-free.
The subject of data set [10] is A549. Kind of data set: Cytotoxicity against human A549 cells assessed as reduction in cell growth incubated for 48 hrs by Alamar blue assay. Format: functional, cell-based. The following applies: A549, 48 h.
For data set [11], the system named is LoVo. Kind of data set: Antiproliferative activity against human LoVo cells assessed as reduction in cell viability incubated for 48 hrs by MTT assay. The class given is functional, cell-based.
The next data set relates to Staphylococcus aureus. Description: Antibacterial activity against Staphylococcus aureus KCTC 503 assessed as reduction in bacterial growth. The class given is functional.
The test system of another data set is Streptococcus mutans. Kind of data set: Antibacterial activity against Streptococcus mutans ATCC 25175 assessed as reduction in microbial growth after 24 hrs by agar well diffusion assay. Format: functional.
The subject of the next data set is Enterococcus faecalis. Description: Antibacterial activity against Enterococcus faecalis assessed as reduction in bacterial cell growth. Format: functional.
The test system of data set [12] is LoVo. Kind of data set: Antiproliferative activity against human LoVo cells assessed as reduction in cell viability incubated for 24 hrs by MTT assay. Format: functional, cell-based.
A short description of data set [13]: Elimination rate constant in rat plasma. The class given is ADME, cell-free.
Data set [14] concerns A549. Description: Inhibition of colony formation in human A549 cells measured after 24 to 48 hrs by crystal violet staining based analysis. Format: functional. Particulars: time 24-48 hrs.
Data set [15] concerns RAW264.7. Kind of data set: Anti-inflammatory activity against mouse RAW264.7 cells assessed as inhibition of LPS-induced NO production. Format: functional, cell-based.

Converted amounts (≈) assume the structure as drawn.

For `COC(=O)[C@]12CCC(C)(C)C[C@H]1C1=CC[C@@H]3[C@@]4(C)CC[C@@H]5O[C@H](c6ccccc6)OC[C@@]5(C)[C@@H]4CC[C@@]3(C)[C@]1(C)CC2`, in the data set with Leishmania mexicana, the EC50 was 2.9 µM.
Still for that read-out and setting: the result for `CC1(C)CC[C@]2(C(=O)OCc3ccccc3)CC[C@]3(C)C(=CC[C@@H]4[C@@]5(C)CC[C@@H]6O[C@H]([C@H](OCc7ccccc7)[C@@H](OCc7ccccc7)[C@H](COCc7ccccc7)OCc7ccccc7)OC[C@@]6(C)[C@@H]5CC[C@]43C)[C@@H]2C1` reads 4.5 µM.
`CC1(C)CC[C@]2(C(=O)OCc3ccccc3)CC[C@]3(C)C(=CC[C@@H]4[C@@]5(C)Cc6nccnc6[C@@](C)(CO)[C@@H]5CC[C@]43C)[C@@H]2C1`: the Activity is recorded as 25.34% in data set [1] and 41.88% in data set [2].
Turning to `CC1(C)CC[C@]2(N=C=O)CC[C@]3(C)C(=CC[C@@H]4[C@@]5(C)CC[C@@H]6OC(C)(C)OC[C@@]6(C)[C@@H]5CC[C@]43C)[C@@H]2C1`, in the data set with Leishmania mexicana, the EC50 came to 0.9 µM.
On the same count and under the same terms, the value for `CC1(C)CC[C@]2(C(=O)O)CC[C@]3(C)C(=CC[C@@H]4[C@@]5(C)CC[C@@H]6OC(C)(C)OC[C@@]6(C)[C@@H]5CC[C@]43C)[C@@H]2C1` was 83.6 µM.
Same read-out and setting: the result for `C[C@H](O)[C@H]1OC(CC2OC[C@@]3(C)[C@@H]4CC[C@]5(C)[C@H](CC=C6[C@@H]7CC(C)(C)CC[C@]7(C(=O)O)CC[C@]65C)[C@@]4(C)CC[C@@H]3O2)[C@@H](O)[C@@H]1O` (some centres undefined) reads 10.3 µM.
In the case of `COC(=O)[C@]12CCC(C)(C)C[C@H]1C1=CC[C@@H]3[C@@]4(C)C=C(C#N)C(=O)[C@@](C)(CO)[C@@H]4CC[C@@]3(C)[C@]1(C)CC2`, the Activity in the data set with RAW264.7 [3] was 1.6 µM. Further, the EC50 in the data set on T47D came to 3.91 µM; in the data set on A549 [4], 7.94 µM; in the data set on MCF7, 2.25 µM; in the data set with HT-1080 it was 3.03 µM; in the data set with A-431, 1.7 µM; in the data set with HL-60 it was 0.548 µM.
As for `C[C@@H]1O[C@@H](O[C@H]2[C@H](O[C@H]3CC[C@@]4(C)[C@@H](CC[C@]5(C)[C@@H]4CC=C4[C@@H]6CC(C)(C)CC[C@]6(C(=O)O)CC[C@]45C)[C@]3(C)CO)OC[C@H](O[C@@H]3O[C@H](CO)[C@@H](O)[C@H](O)[C@H]3O)[C@@H]2O)[C@H](O)[C@H](O)[C@H]1O` [HEDERACOLCHISIDE A], the half-inhibitory concentration (IC50) in the data set with A549 [5] worked out at 5.8 µM.
Regarding `CC(=O)OC[C@@]1(C)[C@@H]2CC[C@]3(C)[C@H](CC=C4[C@@H]5CC(C)(C)CC[C@]5(NC(=O)N5CCCC5)CC[C@]43C)[C@@]2(C)CC[C@@H]1O`, in the data set on Leishmania mexicana, the EC50 is 10.4 µM.
As to `Cc1cncc(C(=O)OCCOC(=O)[C@]23CCC(C)(C)C[C@H]2C2=CC[C@@H]4[C@@]5(C)CC[C@H](O)[C@@](C)(CO)[C@@H]5CC[C@@]4(C)[C@]2(C)CC3)n1`, the IC50 in the data set with A549 [6] worked out at 3.45 µM.
Turning to `O=c1[nH]cc(F)c(=O)[nH]1` [FLUOROURACIL], the IC50 with HepG2 was determined as 16.4 µM.
`CC1(C)CC[C@]2(NC(=O)N3CCC[C@H]3C(=O)O)CC[C@]3(C)C(=CC[C@@H]4[C@@]5(C)CC[C@@H]6OC(C)(C)OC[C@@]6(C)[C@@H]5CC[C@]43C)[C@@H]2C1`: in the data set with Leishmania mexicana, the EC50 turned out to be 81.1 µM.
The same measure, in the same setting: the value for `CC1(C)CC[C@]2(C(=O)OCc3ccccc3)CC[C@]3(C)C(=CC[C@@H]4[C@@]5(C)CC[C@@H]6O[C@H]([C@H]7O[C@H](O)[C@H](O)[C@@H](O)[C@@H]7O)OC[C@@]6(C)[C@@H]5CC[C@]43C)[C@@H]2C1` was 6 µM.
Regarding `CC1(C)CC[C@]2(C(=O)O)CC[C@]3(C)C(=CC[C@@H]4[C@@]5(C)CC[C@@H]6O[C@H](c7ccccc7)OC[C@@]6(C)[C@@H]5CC[C@]43C)[C@@H]2C1`, the EC50 in the data set on Leishmania mexicana is 10 µM.
Same read-out and setting: the result for `CC(=O)OC[C@H](OC(C)=O)[C@H](OC(C)=O)[C@@H](OC(C)=O)[C@@H]1OC[C@@]2(C)[C@@H]3CC[C@]4(C)[C@H](CC=C5[C@@H]6CC(C)(C)CC[C@]6(C(=O)O)CC[C@]54C)[C@@]3(C)CC[C@@H]2O1` reads 7.2 µM.
With `CC1(C)CC[C@]2(C(=O)O)CC[C@]3(C)C(=CC[C@@H]4[C@@]5(C)CC[C@H](O)[C@@](C)(C=O)[C@@H]5CC[C@]43C)[C@@H]2C1`, in the data set on Leishmania mexicana, the EC50 amounted to 9.6 µM.
Still for that read-out and setting: the result for `CC1(C)CC[C@]2(NC(=O)N3CCCC3)CC[C@]3(C)C(=CC[C@@H]4[C@@]5(C)CC[C@@H]6OC(C)(C)OC[C@@]6(C)[C@@H]5CC[C@]43C)[C@@H]2C1` reads 92 µM.
Turning to `COC(=O)[C@]12CCC(C)(C)C[C@H]1C1/C(=N/O)C[C@@H]3[C@@]4(C)CC[C@H](OC(C)=O)[C@@](C)(COC(C)=O)[C@@H]4CC[C@@]3(C)[C@]1(C)CC2` (some centres undefined), the IC50 with HepG2 is 1.88 µM; in data set [7], 21.2 µM.
`CC1(C)CC[C@]2(C(=O)O)CC[C@]3(C)C(=CC[C@@H]4[C@@]5(C)CC[C@H](O)[C@@](C)(CO)[C@@H]5CC[C@]43C)[C@@H]2C1` [HEDERAGENIN]: the IC50 in the data set with BT-20 is 11.8 µM; with HeLa it was 17.4 µg/mL (≈ 36.9 µM); in the data set on A549 [6], more than 50 µM; in the data set on A549 [10], 26.2 µM; in the data set on LoVo [11], 1.17 µM; in the data set with HepG2, 35.9 µM. Further, the IC50 in the data set on LoVo [12] came out at 1.39 µM. In addition, the results for the INH in the data set on NCI-H1299 and with A549 [14] were 20 µM and 10 µM, respectively. Besides, the “inhibition (INH)” value with Toxoplasma gondii came to 64.8%. In addition, in [8], the half-life was determined as 44.1 min. Besides, the Tmax in data set [9] was 18.3 min. In data set [1], the Activity is listed as 149.47%. The results for the MIC in the data set on Staphylococcus aureus, in the data set on Streptococcus mutans and with Enterococcus faecalis were 16 µg/mL (≈ 33.8 µM), 9.7 µg/mL and 128 µg/mL (≈ 271 µM), respectively. The same compound gave a Kel in data set [13] of 0.96 h⁻¹.
As to `C[C@]12CC[C@H](O)[C@@](C)(CO)[C@@H]1CC[C@]1(C)[C@@H]2CC=C2[C@@H]3C[C@](C)(C(=O)O)[C@@H](O)C[C@]3(C(=O)O)CC[C@]21C`, the IC50 with RAW264.7 [15] was 0.078 µM.
